“And” between values parts separate entries of the source, which are not always exact repeats. Equal entries are not always repeated.
Tested on: tumor blood flow
Test: DCE-MRI tumor blood flow estimation pre- and post-treatment in patients of a phase I trial
Format: in vivo, human
Design: Change tgp / Change Gpeak / Change tgp10 / Change E: unit not given here
Conditions: individual patients; for Post-treatment E (enhancement) / Post-treatment Gpeak (gradient peak) / Post-treatment tgp10 (time till gradient drops to 10% of Gpeak) / Post-treatment tgp (time to gradient peak): DCE-MRI 4-6 hrs after infusion, tumor ROI; for Change E / Change Gpeak / Change tgp / Change tgp10: post minus pre-treatment
Protocol: The above equation (4) for Srel can be solved for the concentration variable C if the baseline set of MR image data set is set equal to Sbaseline, and the post MR sets of image data is set equal to the variable Spostcontrast. Concentration C can be calculated on a pixel by pixel or voxel by voxel basis and then averaged resulting in a data set of Concentration C as a function of time. A shown in Block 50 of FIG. 1, the mathematical derivative of Concentration C is determined, preferably by fitting a curve through the concentration data set and then taking the derivative of the curve equation to acquire a gradient curve. The gradient curve represents the rate of change of the tissue concentration of the contrast agent in the ROI. As shown in block 60 of FIG. 1, the maximum value of the rate of change of concentration per time (dC/dt) or Gpeak, is then determined. Thus, Gpeak, which is the magnitude of the first derivative of the concentration curve, can be employed as a flow analog that maintains a high correlation with flow with minimal sensitivity to variations in volume Ve. MRI acquisition techniques, coupled with image analysis techniques (e.g., intensity, rate of change of intensity), facilitate determining the efficacy of a treatment.
With A=40 mMol·sec (the area under curve without recirculation), B=0.5 mMol (the equilibrium concentration), and tp was the time to peak. […] In each case flow F was varied from 0.001 to 0.03 ml/sec/g. Five parameters were calculated from each curve as shown for example purposes in FIG. 5. Magnitude of the first derivative peak (Gpeak), time from bolus arrival to first derivative peak (tgp,) time for gradient to drop to 10% of peak value (tgp10,), the concentration at tgp10 (denoted CE), and initial area under the CT curve from bolus arrival to 60 sec afterwards (IAUC) (Evelhoch, 1999.
DCE-MRI. Six patients were studied using a 1.5T scanner (Siemens Magnetom Vision). Perfusion studies were obtained with a single-slice Fast Low Angle Shot (FLASH) sequence (TR=10, TE=4, FA=30°, slice thickness=10 mm, matrix=128×256, FOV=16×25 cm-35×35 cm) repeated 128 times, once every 2.6 seconds. The first 10 images were obtained without contrast enhancement, after which an approximately 10 second bolus of Gadolinium-DTPA contrast agent (Magnevist, Berlex Laboratories) was administered intravenously. […] DCE-MRI was performed twice on each patient; once to obtain a pre-treatment baseline, and once 4-6 hrs after infusion of combretestatin. The slice position and orientation between days within each patient was carefully matched to obtain data from the same region of interest (ROI) in the tumor. Image processing was performed off-line using a custom software package that permitted a trained rater to view all 128 images in a study and to interactively identify the tumor ROI.

COc1ccc(/C=C\c2cc(OC)c(OC)c(OC)c2)cc1OP(=O)(O)O [CA4P, disodium combretastatin-A-4-3-O-phosphate]
Post-treatment E (enhancement) (60 mg/m^2 (10 min)): 2.01 and 1.87 | Post-treatment Gpeak (gradient peak) (60 mg/m^2 (10 min)): 6.18 and 5.71 | Post-treatment tgp10 (time till gradient drops to 10% of Gpeak) (60 mg/m^2 (10 min)): 25.30 and 34.50 | Post-treatment tgp (time to gradient peak) (60 mg/m^2 (10 min)): 11.50 and 6.90 | Post-treatment E (enhancement) (60 mg/m^2 (1 hr)): 1.72 and 1.76 and 1.80 and 1.28 and 1.30 | Post-treatment Gpeak (gradient peak) (60 mg/m^2 (1 hr)): 4.93 and 3.57 and 3.47 and 2.19 and 1.48 | Post-treatment tgp10 (time till gradient drops to 10% of Gpeak) (60 mg/m^2 (1 hr)): 36.60 and 44.50 (2×) and 20.90 and 52.60 | Post-treatment tgp (time to gradient peak) (60 mg/m^2 (1 hr)): 7.86 (2×) and 15.70 and 13.10 and 11.70 | Change E (60 mg/m^2 (10 min)): −0.41 and 0.05 | Change Gpeak (60 mg/m^2 (10 min)): −1.12 and 0.92 | Change tgp (60 mg/m^2 (10 min)): 0.00 | Change tgp10 (60 mg/m^2 (10 min)): −13.80 and −4.60 | Change E (60 mg/m^2 (1 hr)): −0.27 and −0.06 and −0.13 and −0.22 and −0.20 | Change Gpeak (60 mg/m^2 (1 hr)): −3.76 and −1.05 and −1.53 and −1.44 and −1.75 | Change tgp (60 mg/m^2 (1 hr)): 0.00 and 2.60 and 5.24 and 2.62 and −4.00 | Change tgp10 (60 mg/m^2 (1 hr)): 18.30 and 5.20 and 10.50 and −15.70 and 21.20

Source: patent US20040044281A1, “Systems and methods for assessing blood flow in a target tissue” (priority 2002, published 2004)
